From the NIST ThermoML archive (doi:10.1021/je049738c)

How the values were obtained:
[1] = 298.15 K; 101.33 kPa; Liquid
[2] = molar heat capacity at constant pressure; conditions: 298.15 K; 101.33 kPa; Liquid; Flow calorimetry
[3] = xn = mol fraction of the nth substance listed; conditions: 298.15 K, 101.3 kPa, Liquid
[4] = heat capacity at constant pressure per volume; xn = mol fraction of the nth substance listed; conditions: 298.15 K, 101.3 kPa, Liquid, Flow calorimetry

CCC(C)O (stereo not drawn) [butan-2-ol]
Conditions	mass density [kg/m3]	molar heat capacity at constant pressure [J/K/mol]
[1]	802.07	–
[2]	–	197.8

CCC(C)CO (stereo not drawn) [2-methyl-1-butanol]
Conditions	mass density [kg/m3]	molar heat capacity at constant pressure [J/K/mol]
[1]	814.54	–
[2]	–	215

CC(C)O [propan-2-ol] + O
Conditions	heat capacity, [4] [J/K/m3]	mass density, [3] [kg/m3]
x1 = 0.001072	4172300	996.38
x1 = 0.001923	4175600	995.85
x1 = 0.003078	4179900	995.16
x1 = 0.00413	4183900	994.53
x1 = 0.005976	4191200	993.44
x1 = 0.009312	4204200	991.51
x1 = 0.01437	4225200	988.91
x1 = 0.01665	4234700	987.73

CCC(O)CC [3-pentanol] + O
Conditions	heat capacity, [4] [J/K/m3]	mass density, [3] [kg/m3]
x1 = 0.000803	4173700	996.49
x1 = 0.001033	4175300	996.33
x1 = 0.001252	4176900	996.18
x1 = 0.001864	4181400	995.77
x1 = 0.002399	4185100	995.4
x1 = 0.003282	4191500	994.83
x1 = 0.005357	4206400	993.51
x1 = 0.005689	4209600	993.32
x1 = 0.006773	4217300	992.61

CCC(C)(C)O [2-methylbutan-2-ol] + O
Conditions	heat capacity, [4] [J/K/m3]	mass density, [3] [kg/m3]
x1 = 0.00166	4180000	995.9
x1 = 0.001774	4181000	995.84
x1 = 0.002795	4188600	995.15
x1 = 0.005273	4207000	993.56
x1 = 0.006999	4220500	992.51
x1 = 0.009307	4239300	991.15
x1 = 0.01213	4263400	989.63
x1 = 0.01355	4275900	988.89

CCCC(C)O (stereo not drawn) [pentan-2-ol]
Conditions	mass density [kg/m3]	molar heat capacity at constant pressure [J/K/mol]
[1]	804.55	–
[2]	–	235.3

CCC(O)CC [3-pentanol]
Conditions	mass density [kg/m3]	molar heat capacity at constant pressure [J/K/mol]
[1]	815.3	–
[2]	–	254.6

CC(C)C(C)O (stereo not drawn) [3-methyl-2-butanol] + O
Conditions	heat capacity, [4] [J/K/m3]	mass density, [3] [kg/m3]
x1 = 0.000786	4172900	996.49
x1 = 0.001489	4177000	996.01
x1 = 0.001981	4180000	995.68
x1 = 0.004452	4194900	994.09
x1 = 0.005029	4198500	993.72
x1 = 0.006358	4206900	992.91
x1 = 0.007481	4213800	992.25
x1 = 0.008252	4218900	991.83

CCCO [propan-1-ol] + O
Conditions	heat capacity, [4] [J/K/m3]	mass density, [3] [kg/m3]
x1 = 0.000792	4170900	996.59
x1 = 0.002096	4175200	995.84
x1 = 0.002978	4178200	995.36
x1 = 0.006166	4189500	993.64
x1 = 0.008272	4197000	992.56
x1 = 0.01185	4209800	990.81
x1 = 0.01732	4230600	988.27
x1 = 0.02089	4243100	986.68

CC(C)CO [2-methyl-1-propanol] + O
Conditions	heat capacity, [4] [J/K/m3]	mass density, [3] [kg/m3]
x1 = 0.001575	4175200	995.99
x1 = 0.00181	4176000	995.84
x1 = 0.003631	4184200	994.66
x1 = 0.006044	4195700	993.15
x1 = 0.009083	4209900	991.35
x1 = 0.01143	4220800	989.99
x1 = 0.01647	4247000	987.23

CC(C)(C)CO [2,2-dimethyl-1-propanol] + O
Conditions	heat capacity, [4] [J/K/m3]	mass density, [3] [kg/m3]
x1 = 0.001702	4176200	995.77
x1 = 0.002268	4178900	995.36
x1 = 0.002665	4181000	995.08
x1 = 0.003113	4183100	994.74
x1 = 0.003563	4185300	994.42
x1 = 0.004331	4189100	993.87
x1 = 0.004832	4191800	993.52

CCCCO [butan-1-ol] + O
Conditions	heat capacity, [4] [J/K/m3]	mass density, [3] [kg/m3]
x1 = 0.001656	4176100	995.94
x1 = 0.003814	4186600	994.54
x1 = 0.005524	4195100	993.48
x1 = 0.006663	4200400	992.78
x1 = 0.009163	4213100	991.32
x1 = 0.01415	4239900	988.57
x1 = 0.01604	4251000	987.56

CCCCCO [pentan-1-ol]
Conditions	mass density [kg/m3]	molar heat capacity at constant pressure [J/K/mol]
[1]	810.68	–
[2]	–	208.8

CC(C)CCO [3-methylbutan-1-ol]
Conditions	mass density [kg/m3]	molar heat capacity at constant pressure [J/K/mol]
[1]	804.18	–
[2]	–	209.3

CCC(C)(C)O [2-methylbutan-2-ol]
Conditions	mass density [kg/m3]	molar heat capacity at constant pressure [J/K/mol]
[1]	804.01	–
[2]	–	251.1
